Experimental data taken from patent US20250115597A1, “TYK2 INHIBITORS AND COMPOSITIONS AND METHODS THEREOF” (LYNK PHARMACEUTICALS CO. LTD., priority 2021, published 2025).
pIC50: −log10 of the molar value. Like-named read-outs stand apart in the source and are kept apart here.

Legend:
[1] = biological target: T1, Ba/F3-FL-TYK2-P760L cells (Homo sapiens, UniProt P29597, P760L, cells depend on it); assay: Anti-proliferative assay, Ba/F3-FL-TYK2-P760L cells (Cell-Titer Glo); format: cell-based; conditions: 72 h, read-out: BaF3-FL-T2P760L IC50
T1 construct: BaF3-FL-T2P760L (nM)
T1 sequence (P29597 whole entry P760L): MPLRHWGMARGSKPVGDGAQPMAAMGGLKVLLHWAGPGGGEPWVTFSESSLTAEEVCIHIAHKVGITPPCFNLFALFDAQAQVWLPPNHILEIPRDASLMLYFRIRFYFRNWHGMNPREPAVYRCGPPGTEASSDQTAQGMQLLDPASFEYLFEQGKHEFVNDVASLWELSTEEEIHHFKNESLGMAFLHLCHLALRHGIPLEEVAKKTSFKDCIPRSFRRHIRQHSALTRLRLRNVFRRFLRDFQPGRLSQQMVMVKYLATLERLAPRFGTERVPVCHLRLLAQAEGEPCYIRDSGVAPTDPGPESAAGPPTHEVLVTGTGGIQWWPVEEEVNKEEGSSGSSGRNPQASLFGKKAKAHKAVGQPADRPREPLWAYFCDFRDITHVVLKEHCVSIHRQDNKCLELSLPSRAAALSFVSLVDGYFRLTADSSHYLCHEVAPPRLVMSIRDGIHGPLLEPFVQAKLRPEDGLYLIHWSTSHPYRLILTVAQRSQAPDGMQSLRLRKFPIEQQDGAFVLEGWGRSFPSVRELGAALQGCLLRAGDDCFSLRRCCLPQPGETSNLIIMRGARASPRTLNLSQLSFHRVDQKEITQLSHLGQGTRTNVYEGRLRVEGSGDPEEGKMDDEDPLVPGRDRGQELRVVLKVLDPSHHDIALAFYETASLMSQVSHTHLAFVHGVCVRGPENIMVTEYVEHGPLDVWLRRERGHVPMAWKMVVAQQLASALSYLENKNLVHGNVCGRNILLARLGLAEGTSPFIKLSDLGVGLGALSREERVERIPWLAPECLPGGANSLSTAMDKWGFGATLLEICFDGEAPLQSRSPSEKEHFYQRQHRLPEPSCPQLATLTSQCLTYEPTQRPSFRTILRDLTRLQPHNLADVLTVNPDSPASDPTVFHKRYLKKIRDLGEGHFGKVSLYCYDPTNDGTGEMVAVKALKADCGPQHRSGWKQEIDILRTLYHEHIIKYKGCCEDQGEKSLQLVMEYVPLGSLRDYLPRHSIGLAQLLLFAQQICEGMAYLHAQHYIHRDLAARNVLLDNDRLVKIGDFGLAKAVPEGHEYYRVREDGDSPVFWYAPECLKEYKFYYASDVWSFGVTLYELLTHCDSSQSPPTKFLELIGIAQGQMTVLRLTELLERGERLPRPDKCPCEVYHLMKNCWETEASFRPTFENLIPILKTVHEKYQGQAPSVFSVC
Procedure, shortened: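 Compound exposure ran 72 h at 37 °C in 5% CO2 across nine 3-fold concentrations from a 20 μM top dose, added 24 h after seeding 2000 cells/well.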

[2] = biological target: T2, JAK1-JH2 domain (Homo sapiens, UniProt P23458); assay: Binding activity test for JH2 domain of JAK1 (Tb-antibody/tracer FRET)
T2 construct: IC50 on JH2 domain activity (nM)
T2 sequence (P23458 583-855 limits assumed): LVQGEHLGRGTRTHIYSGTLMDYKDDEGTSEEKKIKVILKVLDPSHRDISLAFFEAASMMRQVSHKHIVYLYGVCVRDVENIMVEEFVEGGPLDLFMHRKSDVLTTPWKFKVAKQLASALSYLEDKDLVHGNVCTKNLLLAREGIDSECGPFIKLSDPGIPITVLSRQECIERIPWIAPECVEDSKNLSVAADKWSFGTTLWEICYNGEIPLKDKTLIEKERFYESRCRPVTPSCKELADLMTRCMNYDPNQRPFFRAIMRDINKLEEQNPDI
Procedure: (§1) Binding Activity Test for […] Domain of JAK1 and TYK2 The compounds are prepared in DMSO for 200× top dose, then serial dilute it with 27-fold for 3 more points. Add 8 μL/well in echo source plate, echo will add 75 nL/well with 3-fold serial dilution for 11 points in assay plate. 75 nL DMSO for high control and low control. […] For low control, add 5 μL/well assay buffer. And then spin down at 1000 rpm and centrifuge for 30 seconds. After enzyme system prepared, add 5 μL of Tb-antibody solution into each wells of assay plate. Spin down at 1000 rpm and centrifuge for 30 sec. After Tb-antibody added, also add 5 μL of tracer into the assay plate. Spin down at 1000 rpm and centrifuge for 30 sec. Incubate for 60 mins at 25° C. firstly and then continue to incubate the plate at 4° C. overnight. Read by envision in FRET mode. The Luminescence value was recorded by a multi-label reader Envision (PerkinElmer).

[3] = biological target: T3, TYK2-JH2 domain (Homo sapiens, UniProt P29597); assay: Binding activity test for JH2 domain of TYK2 (Tb-antibody/tracer FRET); conditions: for JAK1/TYK2 selectivity: ratio JAK1-JH2 IC50 / TYK2-JH2 IC50
T3 construct: IC50 on JH2 domain activity (nM)
T3 sequence (P29597 589-875 limits assumed): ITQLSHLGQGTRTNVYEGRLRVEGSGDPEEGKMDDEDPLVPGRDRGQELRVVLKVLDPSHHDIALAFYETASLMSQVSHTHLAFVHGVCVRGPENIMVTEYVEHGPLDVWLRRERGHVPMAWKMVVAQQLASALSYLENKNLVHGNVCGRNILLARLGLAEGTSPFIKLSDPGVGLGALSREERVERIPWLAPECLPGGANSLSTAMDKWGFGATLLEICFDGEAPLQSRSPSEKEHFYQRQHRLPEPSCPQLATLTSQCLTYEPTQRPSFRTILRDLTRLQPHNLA
Procedure: as §1

[4] = Microsomal metabolic stability assay; format: in vitro ADME; conditions: pH 7.4, 0.5 mg/mL protein, 1 μM compound
Procedure, shortened: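 Parent loss was tracked by LC/MS/MS at 0, 5, 15, 30 and 45 min, with half-life derived from the ln(% remaining)–time slope. Incubation at 37 °C, pH 7.4 phosphate/EDTA buffer: 0.5 mg/mL microsomes, 1 μM compound, NADPH-regenerated (2 mM).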

[5] = dog liver microsomes, read-out: Dog LM Clint
[6] = dog liver microsomes, read-out: Dog LM T½
[7] = human liver microsomes, read-out: Human LM Clint
[8] = human liver microsomes, read-out: Human LM T½
[9] = rat liver microsomes, read-out: Rat LM Clint
[10] = rat liver microsomes, read-out: Rat LM T½

[2H]C([2H])([2H])NC(=O)c1cnc(NC(=O)C2CC2)cc1Nc1ccc2cnn(C(C)C#N)c2c1OC (single isomer, unassigned) [Example 249B, (S*)-4-((1-(1-cyanoethyl)-7-methoxy-1H-indazol-6-yl)amino)-6-(cyclopropanecarboxamido)-N-(methyl-d3)nicotinamide]
GI50 [1]: 342 nM
pIC50 [2]: 7.54
pIC50 [3]: 9.13
JAK1/TYK2 selectivity [3]: 39.25

CCn1ccc2c(c(Nc3cc(NC(=O)C4CC4)ncc3C(=O)NC)cn2C2CC2)c1=O [Example 245, 6-(Cyclopropanecarboxamido)-4-((1-cyclopropyl-5-ethyl-4-oxo-4,5-dihydro-1H-pyrrolo[3,2-c]pyridin-3-yl)amino)-N-methylnicotinamide]
GI50 [1]: 56.4 nM
pIC50 [2]: 8.36
pIC50 [3]: 9.80
JAK1/TYK2 selectivity [3]: 27.7

[2H]C([2H])([2H])NC(=O)c1nnc2cc1Nc1cc(cc(-c3ncn(C)n3)c1OC)COCc1cccc(n1)N2 [Example 68, 10-Methoxy-N-(methyl-d3)-11-(1-methyl-1H-1,2,4-triazol-3-yl)-15-oxa-2,4,5,8,21-pentaazatetracyclo[15.3.1.1^{3,7}.1^{9,13}]tricosa-1(21),3,5,7(23),9(22),10,12,17,19-nonaene-6-carboxamide]
GI50 [1]: 42.1 nM
microsomal CLint at 1 μM [4, 5]: 11.4 µL/min/mg
half-life at 1 μM [4, 6]: 2.02 h
microsomal CLint at 1 μM [4, 7]: 6.45 µL/min/mg
half-life at 1 μM [4, 8]: 3.58 h
microsomal CLint at 1 μM [4, 9]: 47.1 µL/min/mg
half-life at 1 μM [4, 10]: 0.49 h
pIC50 [3]: 9.40

[2H]C([2H])([2H])NC(=O)c1cnc(NC(=O)C2CC2)cc1Nc1cn(C)c2ccn(CC(F)(F)F)c(=O)c12 [Example 110, 6-(Cyclopropanecarboxamido)-N-(methyl-d3)-4-((1-methyl-4-oxo-5-(2,2,2-trifluoroethyl)-4,5-dihydro-1H-pyrrolo[3,2-c]pyridin-3-yl)amino)nicotinamide]
GI50 [1]: 102 nM
microsomal CLint at 1 μM [4, 5]: 15.9 µL/min/mg
half-life at 1 μM [4, 6]: 1.45 h
microsomal CLint at 1 μM [4, 7]: 48.8 µL/min/mg
half-life at 1 μM [4, 8]: 0.473 h
microsomal CLint at 1 μM [4, 9]: 73 µL/min/mg
half-life at 1 μM [4, 10]: 0.316 h
pIC50 [3]: 9.04

[2H]C([2H])([2H])NC(=O)c1cnc(NC(=O)C2CC2)cc1Nc1cn(C)c2ccn(CC)c(=O)c12 [Example 100, 6-(Cyclopropanecarbonylamino)-4-[(5-ethyl-1-methyl-4-oxo-pyrrolo[3,2-c]pyridin-3-yl)amino]-N-(methyl-d3)pyridine-3-carboxamide]
GI50 [1]: 374 nM
microsomal CLint at 1 μM [4, 5]: < 18.6 µL/min/mg
half-life at 1 μM [4, 6]: > 3.1 h
microsomal CLint at 1 μM [4, 7]: 28.6 µL/min/mg
half-life at 1 μM [4, 8]: 1.53 h
microsomal CLint at 1 μM [4, 9]: 49.5 µL/min/mg
half-life at 1 μM [4, 10]: 0.794 h
pIC50 [3]: 9.05

[2H]C([2H])([2H])NC(=O)c1cnc(NC(=O)C2CC2)cc1Nc1cn(C)c2ncn([C@@H](C)C(F)(F)F)c(=O)c12 (single isomer, unassigned) [Example 234B, (S*)-6-(cyclopropanecarboxamido)-N-(methyl-d3)-4-((7-methyl-4-oxo-3-(1,1,1-trifluoropropan-2-yl)-4,7-dihydro-3H-pyrrolo[2,3-d]pyrimidin-5-yl)amino)nicotinamide]
pIC50 [2]: 6.61
pIC50 [3]: 8.24
JAK1/TYK2 selectivity [3]: 42.2

[2H]C([2H])([2H])NC(=O)c1cnc(NC(=O)C2CC2)cc1Nc1cn(CC)c2ncn([C@@H](C)C(F)(F)F)c(=O)c12 (single isomer, unassigned) [Example 254B, (S*)-6-(cyclopropanecarboxamido)-4-((7-ethyl-4-oxo-3-(1,1,1-trifluoropropan-2-yl)-4,7-dihydro-3H-pyrrolo[2,3-d]pyrimidin-5-yl)amino)-N-(methyl-d3)nicotinamide]
pIC50 [2]: 6.60
pIC50 [3]: 7.93
JAK1/TYK2 selectivity [3]: 21.60

[2H]C([2H])([2H])NC(=O)c1cnc(NC(=O)C2CC2)cc1Nc1cn(C)c2ccn(C(C)C(F)(F)F)c(=O)c12 (centres unmarked) [Example 190, 6-(Cyclopropanecarboxamido)-N-(methyl-d3)-4-((1-methyl-4-oxo-5-(1,1,1-trifluoropropan-2-yl)-4,5-dihydro-1H-pyrrolo[3,2-c]pyridin-3-yl)amino)nicotinamide]
GI50 [1]: 78.3 nM
microsomal CLint at 1 μM [4, 5]: 14.7 µL/min/mg
half-life at 1 μM [4, 6]: 1.57 h
microsomal CLint at 1 μM [4, 7]: 69.3 µL/min/mg
half-life at 1 μM [4, 8]: 0.333 h
microsomal CLint at 1 μM [4, 9]: 46.4 µL/min/mg
half-life at 1 μM [4, 10]: 0.498 h
pIC50 [3]: 8.39

[2H]C([2H])([2H])NC(=O)c1cnc(NC(=O)C2CC2)cc1Nc1cn(CCOC)c2ccn(CC)c(=O)c12 [Example 193, 6-(Cyclopropanecarboxamido)-4-((5-ethyl-1-(2-methoxyethyl)-4-oxo-4,5-dihydro-1H-pyrrolo[3,2-c]pyridin-3-yl)amino)-N-(methyl-d3)nicotinamide]
GI50 [1]: 368 nM
microsomal CLint at 1 μM [4, 5]: 11.2 µL/min/mg
half-life at 1 μM [4, 6]: 2.06 h
microsomal CLint at 1 μM [4, 7]: 10.8 µL/min/mg
half-life at 1 μM [4, 8]: 2.14 h
microsomal CLint at 1 μM [4, 9]: 53.8 µL/min/mg
half-life at 1 μM [4, 10]: 0.43 h
pIC50 [3]: 8.85

[2H]C([2H])([2H])NC(=O)c1cnc(NC(=O)C2CC2)cc1Nc1ccc2cnc(CC)n2c1OC [Example 227, 6-(Cyclopropanecarboxamido)-4-((3-ethyl-5-methoxyimidazo[1,5-a]pyridin-6-yl)amino)-N-(methyl-d3)nicotinamide]
GI50 [1]: > 5000 nM
pIC50 [3]: 8.12

[2H]C([2H])([2H])NC(=O)c1cnc(NC(=O)C2CC2)cc1Nc1cn(CC)c2ncn([C@H](C)C(F)(F)F)c(=O)c12 (single isomer, unassigned) [Example 254A, (R*)-6-(cyclopropanecarboxamido)-4-((7-ethyl-4-oxo-3-(1,1,1-trifluoropropan-2-yl)-4,7-dihydro-3H-pyrrolo[2,3-d]pyrimidin-5-yl)amino)-N-(methyl-d3)nicotinamide]
pIC50 [2]: 7.36
microsomal CLint at 1 μM [4, 5]: 4.66 µL/min/mg
half-life at 1 μM [4, 6]: 4.95 h
microsomal CLint at 1 μM [4, 7]: 23 µL/min/mg
half-life at 1 μM [4, 8]: 1 h
microsomal CLint at 1 μM [4, 9]: 39.4 µL/min/mg
half-life at 1 μM [4, 10]: 0.586 h
pIC50 [3]: 9.06
JAK1/TYK2 selectivity [3]: 50.81

[2H]C([2H])([2H])NC(=O)c1cnc(NC(=O)C2CC2)cc1Nc1ncn2ncc(Cl)c2c1OC [Example 281, 4-((3-Chloro-4-methoxypyrazolo[1,5-c]pyrimidin-5-yl)amino)-6-(cyclopropanecarboxamido)-N-(methyl-d3)nicotinamide]
GI50 [1]: 48.2 nM
pIC50 [3]: 9.60

[2H]C([2H])([2H])NC(=O)c1nnc(NC(=O)C2CC2)cc1Nc1ccc2cnn(CC)c2c1OC [Example 144, 6-(Cyclopropanecarboxamido)-4-((1-ethyl-7-methoxy-1H-indazol-6-yl)amino)-N-(methyl-d3)pyridazine-3-carboxamide]
GI50 [1]: 344 nM
pIC50 [3]: 8.89

[2H]C([2H])([2H])NC(=O)c1cnc(Nc2ccn(C)n2)cc1Nc1ccc2cnn(C([2H])([2H])[2H])c2c1OC [Example 154, 4-((7-Methoxy-1-(methyl-d3)-1H-indazol-6-yl)amino)-N-(methyl-d3)-6-((1-methyl-1H-pyrazol-3-yl)amino)nicotinamide]
GI50 [1]: 145 nM
microsomal CLint at 1 μM [4, 5]: 16.8 µL/min/mg
half-life at 1 μM [4, 6]: 1.38 h
microsomal CLint at 1 μM [4, 7]: 31.6 µL/min/mg
half-life at 1 μM [4, 8]: 0.732 h
microsomal CLint at 1 μM [4, 9]: 38.9 µL/min/mg
half-life at 1 μM [4, 10]: 0.595 h
pIC50 [3]: 8.92

[2H]C([2H])([2H])NC(=O)c1cnc(NC(=O)C2CC2)cc1Nc1ncn2ncc(C)c2c1OC [Example 279, 6-(Cyclopropanecarboxamido)-4-((4-methoxy-3-methylpyrazolo[1,5-c]pyrimidin-5-yl)amino)-N-(methyl-d3)nicotinamide]
GI50 [1]: 70.1 nM
pIC50 [3]: 9.48

[2H]C([2H])([2H])NC(=O)c1cnc(NC(=O)C2CC2)cc1Nc1ccc2c(c(CC)nn2C)c1OC [Example 150, 6-(Cyclopropanecarboxamido)-4-((3-ethyl-4-methoxy-1-methyl-1H-indazol-5-yl)amino)-N-(methyl-d3)nicotinamide]
GI50 [1]: 231 nM
pIC50 [3]: 8.73

CCc1nn(C)c2ccc(Nc3cc(NC(=O)C4CC4)ncc3C(=O)OC)c(OC)c12 [Example 149, Methyl 6-(cyclopropanecarboxamido)-4-((3-ethyl-4-methoxy-1-methyl-1H-indazol-5-yl)amino)nicotinate]
GI50 [1]: 732 nM
pIC50 [3]: 7.20
